Measurements from ChEMBL document CHEMBL1201862, “PubChem BioAssay data set” (2004).
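Method: 48-hour compound exposure of cells in 96-well plates, five concentrations, linear interpolation of endpoints. GI50 = concentration required for 50% inhibition of growth.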 Activity calls are given as the source filed them. Cut-off read from the data, not from the text of the source: active = GI50 up to about 1.1 µM and inactive = higher.

Assays:
Assay in all cases: NCI-60 cell line screen, 48 h
HOP-92 = test system: HOP-92
SR = test system: SR
EKVX = test system: EKVX
OVCAR-5 = test system: OVCAR-5
HT-29 = test system: HT-29
NCI-H226 = test system: NCI-H226
U-251 = test system: U-251
SK-MEL-28 = test system: SK-MEL-28
ACHN = test system: ACHN
SNB-78 = test system: SNB-78
SW-620 = test system: SW-620
SK-OV-3 = test system: SK-OV-3
HCT-15 = test system: HCT-15
SF-295 = test system: SF-295
RXF 631 = test system: RXF 631
MOLT-4 = test system: MOLT-4
NCI-H23 = test system: NCI-H23
HOP-62 = test system: HOP-62
M14 = test system: M14
Malme-3M = test system: Malme-3M
M19-MEL = test system: M19-MEL
SF-539 = test system: SF-539
HOP-18 = test system: HOP-18
OVCAR-3 = test system: OVCAR-3
RPMI-8226 = test system: RPMI-8226
LOX IMVI = test system: LOX IMVI
HCT-116 = test system: HCT-116
DMS-114 = test system: DMS-114
SK-MEL-2 = test system: SK-MEL-2
SNB-75 = test system: SNB-75
NCI-H460 = test system: NCI-H460
COLO 205 = test system: COLO 205
SK-MEL-5 = test system: SK-MEL-5
KM12 = test system: KM12
SN12C = test system: SN12C
UACC-257 = test system: UACC-257
HCC 2998 = test system: HCC 2998
KM-20L2 = test system: KM-20L2
K562 = test system: K562
XF498 = test system: XF498
LXFL 529 = test system: LXFL 529
DMS-273 = test system: DMS-273
CAKI-1 = test system: CAKI-1
OVCAR-8 = test system: OVCAR-8
DLD-1 = test system: DLD-1
TK-10 = test system: TK-10
UACC-62 = test system: UACC-62
NCI-H522 = test system: NCI-H522
A498 = test system: A498
SF-268 = test system: SF-268
CCRF-CEM = test system: CCRF-CEM
786-0 = test system: 786-0
SNB-19 = test system: SNB-19
OVCAR-4 = test system: OVCAR-4
HL-60 = test system: HL-60
IGROV-1 = test system: IGROV-1
UO-31 = test system: UO-31
A549 = test system: A549
RXF 393 = test system: RXF 393

Measured: GI50

O=C1/C(=C/c2ccccc2)CNC/C1=C\c1ccccc1
active: SR 0.659 µM | HT-29 0.841 µM | U-251 0.36 µM | SW-620 0.441 µM | MOLT-4 0.429 µM | M19-MEL 1.02 µM | RPMI-8226 0.221 µM | LOX IMVI 0.643 µM | HCT-116 0.184 µM | KM12 0.962 µM | K562 0.52 µM | DMS-273 0.721 µM | DLD-1 0.329 µM | NCI-H522 1.02 µM | HL-60 0.406 µM
0.612 µM: HCT-15
inactive: HOP-92 8.13 µM | EKVX 4.78 µM | OVCAR-5 2.44 µM | NCI-H226 2.42 µM | SK-MEL-28 1.92 µM | ACHN 2.05 µM | SNB-78 10.4 µM | SK-OV-3 2.22 µM | SF-295 2.07 µM | RXF 631 2.91 µM | NCI-H23 1.83 µM | HOP-62 2.84 µM | M14 1.81 µM | Malme-3M 3.26 µM | SF-539 1.56 µM | HOP-18 11 µM | OVCAR-3 1.42 µM | DMS-114 2.11 µM | SK-MEL-2 3.21 µM | SNB-75 3.38 µM | NCI-H460 1.36 µM | COLO 205 1.58 µM | SK-MEL-5 1.91 µM | SN12C 1.69 µM | UACC-257 5.51 µM | HCC 2998 1.87 µM | KM-20L2 1.39 µM | XF498 2.32 µM | LXFL 529 1.49 µM | CAKI-1 5.65 µM | OVCAR-8 1.71 µM | TK-10 2.4 µM | UACC-62 1.76 µM | A498 1.97 µM | SF-268 2.2 µM | CCRF-CEM 1.37 µM | 786-0 1.57 µM | SNB-19 3.28 µM | OVCAR-4 1.43 µM | IGROV-1 1.87 µM | UO-31 2.02 µM | A549 2.28 µM

COc1ccc(-c2cc(O)c3ccc(F)cc3n2)cc1
inactive: HOP-92 > 100 µM | SR > 100 µM | EKVX > 100 µM | OVCAR-5 > 100 µM | HT-29 > 100 µM | NCI-H226 > 100 µM | SK-MEL-28 > 100 µM | ACHN > 100 µM | SNB-78 > 100 µM | SW-620 > 100 µM | SK-OV-3 > 100 µM | SF-295 > 100 µM | RXF 631 > 100 µM | MOLT-4 > 100 µM | NCI-H23 > 100 µM | HOP-62 > 100 µM | M14 > 100 µM | Malme-3M > 100 µM | M19-MEL > 100 µM | SF-539 > 100 µM | HOP-18 > 100 µM | OVCAR-3 > 100 µM | RPMI-8226 > 100 µM | LOX IMVI > 100 µM | HCT-116 > 100 µM | DMS-114 > 100 µM | SNB-75 > 100 µM | NCI-H460 > 100 µM | COLO 205 > 100 µM | SK-MEL-5 > 100 µM | KM12 77.4 µM | RXF 393 > 100 µM | SN12C > 100 µM | UACC-257 > 100 µM | HCC 2998 > 100 µM | KM-20L2 > 100 µM | K562 > 100 µM | XF498 > 100 µM | LXFL 529 > 100 µM | OVCAR-8 > 100 µM | DLD-1 > 100 µM | TK-10 > 100 µM | UACC-62 > 100 µM | NCI-H522 > 100 µM | SF-268 23.5 µM | CCRF-CEM > 100 µM | 786-0 > 100 µM | SNB-19 > 100 µM | OVCAR-4 > 100 µM | HL-60 > 100 µM | IGROV-1 > 100 µM | UO-31 > 100 µM | A549 > 100 µM
